{"source": "patent US8648072B2", "about": "“Cannabinoid receptor antagonists/inverse agonists useful for treating metabolic disorders, including obesity and diabetes” (Jenrin Discovery, Inc., priority 2009, dated 2014)", "origin": "cited, not measured here", "system": "patients with type 2 diabetes", "settings": "after six months of treatment; baseline value of 7.9; placebo group 0.3%"}
{"smiles": "Cc1c(C(=O)NN2CCCCC2)nn(-c2ccc(Cl)cc2Cl)c1-c1ccc(Cl)cc1", "note": "[rimonabant]", "values": [{"measurement": "HbA1c levels lowered", "result": 0.8, "unit": "%"}]}
